Test results published in US20250066376A1, “OPIOID RECEPTOR ANTAGONIST PRODRUGS” (Nirsum Laboratories, Inc., priority 2024, published 2025).

Experiment: Solubility of naloxone and naltrexone prodrug compounds
Format: physicochemical
Conditions: for Solubility in water: lower limit of aqueous solubility; for Solubility in cottonseed oil / Solubility in miglyol 812N / Solubility in sesame oil: solubility study in oil excipients at 50 mg/ml (base equivalents)
Source text: Example 12: Solubility of Naloxone and Naltrexone Prodrug Compounds
Table 12 and Table 13 report the solubility data for the naloxone and naltrexone prodrug compounds, respectively.

SMILES: C=CCN1CC[C@]23c4c5ccc(OCOC(=O)CCCCC)c4O[C@H]2C(=O)CC[C@@]3(O)[C@H]1C5 [III-1, [(3R,4aS,7aR,12bS)-3-allyl-4a-hydroxy-7-oxo-2,4,5,6,7a,13-hexahydro-1H-4,12-methanobenzofuro[3,2-e]isoquinoline-9-yl]oxymethyl hexanoate]
- Solubility in water: Solubility in water: <0.001 mg/mL
- Solubility in cottonseed oil (naloxone prodrugs (Table 12)): In cottonseed oil: >50.03 mg/ml
- Solubility in miglyol 812N (naloxone prodrugs (Table 12)): In miglyol 812N: <50.53 mg/ml
- Solubility in sesame oil (naloxone prodrugs (Table 12)): In sesame oil: >50.01 mg/ml

SMILES: C=CCN1CC[C@]23c4c5ccc(OCOC(=O)CCCCC)c4O[C@H]2C(=O)CC[C@@]3(O)[C@H]1C5 [III-2, [(3R,4aS,7aR,12bS)-3-allyl-4a-hydroxy-7-oxo-2,4,5,6,7a,13-hexahydro-1H-4,12-methanobenzofuro[3,2-e]isoquinoline-9-yl]oxymethyl hexanoate]
- Solubility in water: Solubility in water: <0.001 mg/mL
- Solubility in cottonseed oil (naloxone prodrugs (Table 12)): In cottonseed oil: >50.48 mg/ml
- Solubility in miglyol 812N (naloxone prodrugs (Table 12)): In miglyol 812N: <50.28 mg/ml
- Solubility in sesame oil (naloxone prodrugs (Table 12)): In sesame oil: <50.44 mg/ml

SMILES: CCCCOC(=O)OCOc1ccc2c3c1O[C@H]1C(=O)CC[C@@]4(O)[C@@H](C2)N(CC2CC2)CC[C@]314 [IV-4, [(3R,4aS,7aR,12bS)-3-(cyclopropylmethyl)-4a-hydroxy-7-oxo-2,4,5,6,7a,13-hexahydro-1H-4,12-methanobenzofuro[3,2-e]isoquinoline-9-yl]oxymethyl butyl carbonate]
- Solubility in water: Solubility in water: <0.001 mg/mL
- Solubility in cottonseed oil (naltrexone prodrugs (Table 13)): In cottonseed oil: <50.12 mg/mL
- Solubility in miglyol 812N (naltrexone prodrugs (Table 13)): In miglyol 812N: <50.41 mg/mL
- Solubility in sesame oil (naltrexone prodrugs (Table 13)): In sesame oil: <50.07 mg/mL

SMILES: CCCCCCOC(=O)OCOc1ccc2c3c1O[C@H]1C(=O)CC[C@@]4(O)[C@@H](C2)N(CC2CC2)CC[C@]314 [IV-5, [(3R,4aS,7aR,12bS)-3-(cyclopropylmethyl)-4a-hydroxy-7-oxo-2,4,5,6,7a,13-hexahydro-1H-4,12-methanobenzofuro[3,2-e]isoquinoline-9-yl]oxymethyl hexyl carbonate]
- Solubility in water: Solubility in water: <0.001 mg/mL
- Solubility in cottonseed oil (naltrexone prodrugs (Table 13)): In cottonseed oil: <50.19 mg/mL
- Solubility in miglyol 812N (naltrexone prodrugs (Table 13)): In miglyol 812N: <50.24 mg/mL
- Solubility in sesame oil (naltrexone prodrugs (Table 13)): In sesame oil: >50.31 mg/mL

SMILES: CCCCCCCCOC(=O)OCOc1ccc2c3c1O[C@H]1C(=O)CC[C@@]4(O)[C@@H](C2)N(CC2CC2)CC[C@]314 [IV-6, [(3R,4aS,7aR,12bS)-3-(cyclopropylmethyl)-4a-hydroxy-7-oxo-2,4,5,6,7a,13-hexahydro-1H-4,12-methanobenzofuro[3,2-e]isoquinoline-9-yl]oxymethyl octyl carbonate]
- Solubility in water: Solubility in water: <0.001 mg/mL
- Solubility in cottonseed oil (naltrexone prodrugs (Table 13)): In cottonseed oil: >50.28 mg/mL
- Solubility in miglyol 812N (naltrexone prodrugs (Table 13)): In miglyol 812N: >50.11 mg/mL
- Solubility in sesame oil (naltrexone prodrugs (Table 13)): In sesame oil: >50.43 mg/mL
